{
  "source": "patent EP0082648A2",
  "about": "“Cephalosporin derivatives” (IMPERIAL CHEMICAL INDUSTRIES PLC, priority 1981, dated 1983)",
  "key": {"[1]": {"assay": "Toxicity observation after subcutaneous administration to mice", "type": "in vivo", "settings": "dose four times the minimum effective dose which protected 50% of the mice against infection with Salmonella dublin", "description": "Thus the compound 7-(4-[3-(3-cyano-2-methylisothioureido)propyl]imidazol-2-yl)amino-3-(1-methyl-lH-tetrazol-5-yl)thiomethylceph-3-em-4-carboxylic acid (Example 4) was administered subcutaneously to mice at a dose four times that of the minimum effective dose which protected 50% of the mice against infection with Salmonella dublin."}, "Ent. cloacae": {"test_system": "Ent. cloacae", "assay": "In vitro agar dilution MIC test, Jewell and Pearmain agar medium", "type": "cell-based", "settings": "Enterobacter cloacae, Code A13, inoculum size ~10^5 CFU", "text": "(§1) The results set out in the following Table are illustrative of the biological activity of one of the preferred compounds of the present invention, that of Example 4. The following results are those obtained on a standard in vitro test system using Jewell and Pearmain agar medium. The antibacterial activity is described in terms of the minimum inhibitory concentration (MIC) determined by agar - dilution technique with an inoculum size of ~10^5 CFU."}, "Strep. pyogenes": {"test_system": "Strep. pyogenes", "assay": "In vitro agar dilution MIC test, Jewell and Pearmain agar medium", "type": "cell-based", "settings": "Streptococcus pyogenes, Code A1, inoculum size ~10^5 CFU", "text": "as §1"}, "Proteus mirabilis": {"test_system": "Proteus mirabilis", "assay": "In vitro agar dilution MIC test, Jewell and Pearmain agar medium", "type": "cell-based", "settings": "Code A18, inoculum size ~10^5 CFU", "text": "as §1"}, "Staph. aureus": {"test_system": "Staph. aureus", "assay": "In vitro agar dilution MIC test, Jewell and Pearmain agar medium", "type": "cell-based", "settings": "Staphylococcus aureus, Code A6, inoculum size ~10^5 CFU", "text": "as §1"}, "K. aerogenes": {"test_system": "K. aerogenes", "assay": "In vitro agar dilution MIC test, Jewell and Pearmain agar medium", "type": "cell-based", "settings": "Klebsiella aerogenes, Code A10, inoculum size ~10^5 CFU", "text": "as §1"}, "E. coli": {"test_system": "E. coli", "assay": "In vitro agar dilution MIC test, Jewell and Pearmain agar medium", "type": "cell-based", "settings": "Escherichia coli, Code A8, inoculum size ~10^5 CFU", "text": "as §1"}, "Ps. aeruginosa": {"test_system": "Ps. aeruginosa", "assay": "In vitro agar dilution MIC test, Jewell and Pearmain agar medium", "type": "cell-based", "settings": "Pseudomonas aeruginosa, Code A21, inoculum size ~10^5 CFU", "text": "as §1"}, "Salmonella dublin": {"test_system": "Salmonella dublin", "assay": "In vitro agar dilution MIC test, Jewell and Pearmain agar medium", "type": "cell-based", "settings": "Salmonella enterica, Code A20, inoculum size ~10^5 CFU", "text": "as §1"}, "Serratia marescens": {"test_system": "Serratia marescens", "assay": "In vitro agar dilution MIC test, Jewell and Pearmain agar medium", "type": "cell-based", "settings": "Code A16, inoculum size ~10^5 CFU", "text": "as §1"}},
  "data": [
    {"compound": "CSC(=NC#N)NCCCc1c[nH]c(NC2C(=O)N3C(C(=O)O)=C(CSc4nnnn4C)CS[C@H]23)n1", "note": "(stereo partly shown) [Example 4, 7-(4-[3-(3-cyano-2-methylisothioureido)propyl]imidazol-2-yl)amino-3-(1-methyl-1H-tetrazol-5-yl)thiomethylceph-3-em-4-carboxylic acid]", "values": [
      {"measurement": "overt toxic symptoms or side effects", "setting": "[1]", "value": "No overt toxic symptoms or side effects attributable to the administered compound were noted"},
      {"measurement": "MIC", "setting": "Ent. cloacae", "value": 32, "unit": "µg/mL"},
      {"measurement": "MIC", "setting": "Strep. pyogenes", "value": 8, "unit": "µg/mL"},
      {"measurement": "MIC", "setting": "Proteus mirabilis", "value": 1, "unit": "µg/mL"},
      {"measurement": "MIC", "setting": "Staph. aureus", "value": 16, "unit": "µg/mL"},
      {"measurement": "MIC", "setting": "K. aerogenes", "value": 0.12, "unit": "µg/mL"},
      {"measurement": "MIC", "setting": "E. coli", "value": 0.06, "unit": "µg/mL"},
      {"measurement": "MIC", "setting": "Ps. aeruginosa", "value": "> 128", "unit": "µg/mL"},
      {"measurement": "MIC", "setting": "Salmonella dublin", "value": 0.03, "unit": "µg/mL"},
      {"measurement": "MIC", "setting": "Serratia marescens", "value": 4, "unit": "µg/mL"}
    ]}
  ]
}
